From ChEMBL document CHEMBL1201862, “PubChem BioAssay data set” (2004)
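A five-concentration, 48-hour dose response in 96-well plates underlies each endpoint, interpolated linearly between surrounding concentrations. Here, GI50 denotes the concentration required for 50% inhibition of growth.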 Activity calls are given as the source filed them. Cut-off read from the data, not from the text of the source: active = GI50 up to about 1.1 µM and inactive = higher.

Assays:
Assay in all cases: NCI tumour cell line growth inhibition, 48 h
CAKI-1 = test system: CAKI-1
EKVX = test system: EKVX
HL-60 = test system: HL-60
T47D = test system: T47D
OVCAR-3 = test system: OVCAR-3
NCI-H522 = test system: NCI-H522
TK-10 = test system: TK-10
PC-3 = test system: PC-3
UACC-62 = test system: UACC-62
SF-268 = test system: SF-268
SK-OV-3 = test system: SK-OV-3
SK-MEL-2 = test system: SK-MEL-2
MDA-MB-435 = test system: MDA-MB-435
KM12 = test system: KM12
SNB-75 = test system: SNB-75
BT-549 = test system: BT-549
HCT-116 = test system: HCT-116
IGROV-1 = test system: IGROV-1
MDA-MB-231 = test system: MDA-MB-231

| SMILES | GI50 (CAKI-1) | GI50 (EKVX) | GI50 (HL-60) | GI50 (T47D) | GI50 (OVCAR-3) | GI50 (NCI-H522) | GI50 (TK-10) | GI50 (PC-3) | GI50 (UACC-62) | GI50 (SF-268) | GI50 (SK-OV-3) | GI50 (SK-MEL-2) | GI50 (MDA-MB-435) | GI50 (KM12) | GI50 (SNB-75) | GI50 (BT-549) | GI50 (HCT-116) | GI50 (IGROV-1) | GI50 (MDA-MB-231) |
| --- | --- | --- | --- | --- | --- | --- | --- | --- | --- | --- | --- | --- | --- | --- | --- | --- | --- | --- | --- |
| O=C(Oc1ccccc1)c1cc2cc(CCl)ccc2oc1=O | 14.5 µM (inactive) | 17.6 µM (inactive) | 18.2 µM (inactive) | 15.6 µM (inactive) | 29.1 µM (inactive) | 6.17 µM (inactive) | 17.5 µM (inactive) | 14.2 µM (inactive) | 13.4 µM (inactive) | 23.2 µM (inactive) | 28.6 µM (inactive) | 3.17 µM (inactive) | 19.4 µM (inactive) | 63.4 µM (inactive) | 21.5 µM (inactive) | 64.3 µM (inactive) | 34.4 µM (inactive) | 23.3 µM (inactive) | 32.1 µM (inactive) |
| O=C(O)CSc1ccccc1C(=O)O | > 100 µM (inactive) | > 100 µM (inactive) | 6.03 µM (inactive) | > 100 µM (inactive) | > 100 µM (inactive) | > 100 µM (inactive) | 22.8 µM (inactive) | > 100 µM (inactive) | > 100 µM (inactive) | > 100 µM (inactive) | > 100 µM (inactive) | > 100 µM (inactive) | > 100 µM (inactive) | > 100 µM (inactive) | > 100 µM (inactive) | > 100 µM (inactive) | > 100 µM (inactive) | > 100 µM (inactive) | > 100 µM (inactive) |
| Cc1nc2c(N3CCCC3)nc(N3CCNCC3)nc2nc1NCc1ccccc1 | 3.01 µM (inactive) | 8.11 µM (inactive) | 3.61 µM (inactive) | 1.73 µM (inactive) | 2.43 µM (inactive) | 1.65 µM (inactive) | 4.88 µM (inactive) | 5.05 µM (inactive) | 2.79 µM (inactive) | 3.85 µM (inactive) | 7.69 µM (inactive) | 4.98 µM (inactive) | 2.24 µM (inactive) | 2.84 µM (inactive) | 0.578 µM (active) | 2.4 µM (inactive) | 1.62 µM (inactive) | 3.95 µM (inactive) | 2.95 µM (inactive) |
| O=C(O)C1CCCN1Cc1c[nH]c2ccccc12 (stereo not given) | > 100 µM (inactive) | > 100 µM (inactive) | > 100 µM (inactive) | > 100 µM (inactive) | > 100 µM (inactive) | > 100 µM (inactive) | > 100 µM (inactive) | > 100 µM (inactive) | > 100 µM (inactive) | > 100 µM (inactive) | > 100 µM (inactive) | > 100 µM (inactive) | > 100 µM (inactive) | > 100 µM (inactive) | > 100 µM (inactive) | > 100 µM (inactive) | > 100 µM (inactive) | > 100 µM (inactive) | > 100 µM (inactive) |
| Cc1c(-c2ccccc2)c(C#N)c2nnn(C3CCCCC3)c(=O)n12 | 0.425 µM (active) | 37 µM (inactive) | > 100 µM (inactive) | > 100 µM (inactive) | > 100 µM (inactive) | > 100 µM (inactive) | > 100 µM (inactive) | 20.2 µM (inactive) | > 100 µM (inactive) | > 100 µM (inactive) | 60.3 µM (inactive) | 31.6 µM (inactive) | > 100 µM (inactive) | > 100 µM (inactive) | 28 µM (inactive) | > 100 µM (inactive) | 52.6 µM (inactive) | 60.4 µM (inactive) | 21.6 µM (inactive) |
